Data as given in a melting point compilation (Tetko et al.; mined from patent text by program, amines drawn as free bases though some values may be those of a salt).

SMILES	melting point
O=C1NCCN1CCNc1cc(-c2ccncc2)c(-c2ccccc2)nn1	206 to 207 °C
COc1ccc(CNC(=O)c2c(NC(=O)c3ccc(C(=O)O)cc3)sc3c2CCCC3)cc1OC	> 270 °C
CCCCCCCCOc1cc(O)c2c(=O)c3ccccc3oc2c1	98 °C
O=c1ccoc2c(C/C=C/c3ccccc3)c(OCc3ccccc3)ccc12	131 to 133 °C
N#Cc1ccc(CN2CCC(=O)C(C(c3ccc(F)cc3)c3ccc(F)cc3)C2)cc1 (stereo not given)	118 to 120 °C
CCC(=O)NC1Cc2cccc3ccc(OC)c(c23)C1 (stereo not given)	184 to 186 °C
O=C(CCCC1CCCCCCCCCCC1)C1=C(O)CSC1=O	62 to 69 °C
CCNC(=O)c1c(C)cccc1C(C)(C)C	110 to 112 °C
COc1cc2ncnc(N3CCC(C(C)(O)COS(=O)(=O)c4ccc(C)cc4)CC3)c2cc1OC (stereo not given)	120 to 124 °C
COc1cc(OC)nc(CC#N)n1	65 to 67 °C
CCN1C(=O)C(C)(C)C(=O)N(C)c2cc(CN(CCn3ccc4sccc4c3=O)Cc3cc(C)nn3C)ccc21	144 to 146 °C
[N-]=[N+]=CC(=O)c1ccc(Br)c(S(N)(=O)=O)c1	152 °C
CC(C)(C)[Si](C)(C)Oc1ccc(NC(=O)CBr)cc1	112 to 113 °C
O=C(c1ccc(Nc2ccnc3cc(C(F)(F)F)ccc23)cc1)N1CC=C(c2ccc(Cl)cc2)CC1	225 to 226 °C
CCCCCC(CC(=O)Nc1cc(C(=O)NC(=O)C(C)(C)C)ccc1C(C)(C)C)c1ccc(OC)cc1OC (stereo not given)	170 to 172 °C
Cc1cc2c(=O)c(C(=O)O)cn(-c3cc(N)c(F)cc3F)c2c([N+](=O)[O-])c1F	236 to 242 °C
c1ccc(CCc2n[nH]c(NCCCCOc3cccc(CN4CCCCC4)c3)n2)cc1	146 to 147 °C
CCCCCCCCCCCCOC(=O)C(N)CCCNC(=N)N (stereo not given)	125 to 130 °C
CCSc1c2ccccc2c(C=O)c2ccccc12	74 to 75.5 °C
Cc1cc(-c2cccc(C3=Nc4ccc(-c5ccc(F)cc5)cc4NC(=O)C3)c2)on1	> 250 °C
CC1(C)OCc2c1nc1ccccc1c2NCCCN1CCCC1	70 to 75 °C
Clc1ccc(C2Cc3cnc4[nH]ncc4c3-c3ccccc32)cc1Cl (stereo not given)	76 to 78 °C
NS(=O)(=O)c1ccc(-c2cnn(C3CC=CCC3)c(=O)c2-c2ccc(F)cc2)cc1 (stereo not given)	206 to 208 °C
CCOC(=O)c1cn(-c2ccc(OC)cc2F)c2cc(F)c(F)cc2c1=O	170 to 171 °C
O=C(O)c1cn(C2CC2)c2c(F)c(N3CCC[C@H]3CO)c(F)cc2c1=O	209 to 210 °C

SMILES	melting point
CSCCN1C(=O)N2CCOC2(c2ccccc2)c2cc(Cl)ccc21 (stereo not given)	145 to 146 °C
NC(=O)c1cnc2ccsc2c1Cl	180 to 182 °C
COc1ccc(CNc2nc(Cl)ccc2C=O)cc1Cl	134 to 138 °C
CC1(C)Oc2cc(C#N)sc2[C@@H](N2CCCCC2=O)[C@@H]1O (relative stereo)	212 to 214 °C
COc1ccc(C2(O)CCN(Cc3ccccc3)CC2)cc1OC	112 to 114 °C
COC(=O)c1cc(C)c(C(OC(=O)C(C)NS(=O)(=O)c2ccc(Cl)cc2)c2cc(-n3ccnc3)ccc2C)c(C)c1 (stereo not given)	126 to 128 °C
Cc1ccc(C)c(OC(=O)c2c3ccccc3nc3ccccc23)c1	187 to 190 °C
O=C(OC1CCCCCCC1)c1cc2cc(CCl)ccc2oc1=O	169 to 170 °C
CCOC(=O)C(C)(C)Oc1ccc(-c2ccc(CCNC(=O)c3c(OC)cccc3OC)cc2)cc1	< 20 °C
CC(C)(C)OC(=O)N1CC=C(c2ccnc(C(=O)N(O)Cc3ccccc3)c2)CC1	125 °C
COc1ccc(Cc2ncc(CN3CCN(c4ccccc4OC)CC3)c3cc(OC)c(OC)cc23)cc1OC	117 to 119 °C
Nc1ccc(NCCO)c(S(=O)(=O)CCO)c1	130 °C
NC(=O)Cc1ccc(C2CCCCC2)cc1	167 to 168 °C
Cc1ccc(N(C)S(=O)(=O)c2cccs2)c2[nH]c(C3=NCC(CC(=O)O)S3)cc12 (stereo not given)	269 to 270 °C
Oc1cc(-n2cc3c(n2)CCCC3)c(Cl)cc1Cl	84 to 86 °C
O=c1ncc(Br)cn1CCCl	185 to 186 °C
O=C(O)c1cc(F)ccc1Nc1ccnc2cc(Cl)ccc12	341 to 342 °C
O=C(O)c1nc2n(n1)-c1cc(Cl)ccc1N(c1ccc(Cl)cc1Cl)C2	218 to 222 °C
CCCCCCCCCCCCCCCCCCCCCCCCNc1ccc(C(=O)C(F)(F)F)cc1	89 to 90 °C
CCCCCN(CCC12CC3CC(CC(C3)C1)C2)C(=O)NCCCc1cccnc1	99.9 to 105 °C
COC(=O)N1CCC(=C2c3ccccc3CCc3cccnc32)CC1	116 to 118 °C
O=C(O)C1Cc2cc3c(=O)c4c(Cl)cccc4oc3c(Cl)c2O1 (stereo not given)	291 to 294 °C
CSc1ccc(-c2cnn(Cc3ccccc3)c(=O)c2Br)cc1	115 to 118 °C
Cc1oc(-c2ccccc2)nc1COc1ccc(CCCO)cn1	89 to 90 °C
COC(=O)n1c(SCc2nccc(SCCN3CCOCC3)c2C)nc2ccccc21	151 to 153 °C

SMILES	melting point
COC(=O)c1c(SC)nn(-c2c(Cl)cc(Cl)cc2Cl)c1N	160 to 162 °C
CC(=O)N1CCN=C1c1ccc(NC(=O)C2=Cc3ccccc3OCC2)cc1	222 to 224 °C
CC(C)(N)CNS(=O)(=O)c1ccccc1	152 to 153 °C
CSc1ccc(-c2cc(C(F)F)nn2-c2ccc(C(C)=O)cc2)cc1	143 to 145 °C
CC(C)(CCCCOc1ccc(NC(=O)CCCn2ccnc2)cc1)C(=O)O	150 °C
O=C(NCc1ccc(Cl)cc1)c1cn(N2CCCCC2)c2ccc(CN3CCOCC3)cc2c1=O	161 to 164 °C
c1cnc(N2CCN(CCCCn3cnc4ccccc43)CC2)nc1	85 to 88 °C
COC(=O)CCCc1cc2nc(Cl)ccc2n1S(=O)(=O)c1ccc(-c2ccccc2)cc1	122 to 124 °C
Nc1ncnc2c1c(-c1ccc(Oc3ccccc3)cc1)cn2[C@H]1CC[C@@H](N2CCCCC2)CC1	192 to 195 °C
N[C@H](Cc1ccc(C(F)(F)F)cc1)[C@@H](O)c1cccc(Cl)n1 (racemic)	89 to 90 °C
NC(=O)CN(N=O)N1CCOCC1	134 to 136 °C
Cn1cc(-c2ccccc2)c(=O)c(-c2cccc(C(=O)O)c2)c1	265 to 267 °C
O=C(O)c1cnn(CC(F)(F)F)c1	160 to 162 °C
COC(=O)c1ccc(CCc2nc(NC(C)=O)sc2Cc2ccc(S(C)(=O)=O)cc2)cc1	209 to 210 °C
CCCCCN(CCc1ccccc1)C(=O)NCC(C)Cc1ccncc1 (stereo not given)	49 to 50 °C
CC1=CC(c2ccc(C(F)(F)F)cc2)C2=C(CCCC2=O)N1 (stereo not given)	116 to 118 °C
CN(C)C=Nc1c(C#N)c(=O)n(C)c(=O)n1C	174 to 175 °C
COc1ccc(/C=C/c2ccncc2)cc1O	196 to 199 °C
Cc1ccccc1C(=O)Nc1c(NC(=O)CCl)ccc2c1C(=O)c1ccccc1C2=O	179 to 180 °C
COc1cc(C)ccc1OC(=O)c1ccccc1	73 to 75 °C
Cc1c(N)cccc1CO	104 to 106 °C
CC(=O)OC1OCC[C@@H]1NC(=O)CCC(=O)Nc1ccc(Nc2ccccc2)cc1 (stereo not given in full)	191 to 192 °C
Cc1ccc(C(=O)NCCO)c(Nc2ccc3cn[nH]c3c2)n1	217 to 220 °C
CCCn1cc2c(C3C(=O)Nc4ccc(Br)cc43)nc(NCCCN)nc2n1 (stereo not given)	> 300 °C
CC(=O)NNc1c(C)cnc2c(NC(=O)c3ccccc3C(F)(F)F)cccc12	209 to 211 °C

SMILES	melting point
CC(C)(C)COc1ccc(NC(=O)c2ccn(-c3ccc(F)cc3)c2)cc1C#N	167 to 169 °C
CSc1ncc2c(Cl)ccn2n1	107 to 108 °C
CCCCOc1cccc(Cn2[nH]c(N)cc2=O)c1	110 °C
COC(=O)c1ccc(OCCN2C(=O)c3ccccc3C2=O)cc1	129 to 130 °C
COC(=O)c1ccc(OCC2COC(=O)N2c2ccc(Cl)cc2)cc1 (stereo not given)	135 to 136 °C
O=c1[nH]ncc2[nH]c(-c3ccc(OC(F)F)c(OC4CC4)c3)c(-c3cn[nH]c3)c12	294 to 297 °C
CCc1nc2c(cnn2CC)c(NC2CCOCC2)c1CNC(=O)c1cccc(C(=O)NCc2ccc(F)c(-c3cccc(CN4CCCNCC4)c3)c2)c1	145 to 148 °C
C=C(C)COc1c(C)c(CCC(O)CC(=O)CC(=O)OCC)c2c(c1C)CC(C)(C)O2 (stereo not given)	53.5 to 55 °C
CC1NCc2ccsc2C1c1ccccc1 (stereo not given)	78 °C
c1ccc(Oc2nc(Oc3ccccc3)nc(N3CCOCC3)n2)cc1	166 to 168 °C
CCCCOC(=O)Oc1cc(-n2c(OCC)nc(C(F)(F)F)cc2=O)c(F)cc1Cl	100 to 102 °C
C=CCCC1C=CCC2=C1C(=O)C1=C(CCCC1)C2=O (stereo not given)	47 to 48 °C
CCc1nn(CCO)c(N)c1Cc1cc(Cl)cc(Cl)c1	135 °C
Nc1cccc(Cn2c(-c3ccc(-c4cccnc4)cc3)ccc2-c2ccccc2Cl)n1	139 to 145 °C
c1ccc2c(c1)CCc1ccccc1C2Nc1ccncc1	263 to 264 °C
CCOC(=O)[C@H]1CCc2ccc(O)cc2O1	77 to 78 °C
CCCCn1nc(C(F)(F)CCC)nc1Cc1ccc(-c2ccccc2-c2nnn[nH]2)nc1	135 to 136 °C
CCc1cc(Cl)cc2c1NC(C)NS2(=O)=O (stereo not given)	181 to 183 °C
O=C(O)c1ccc2c(c1)S(=O)c1ccccc1C2=O (stereo not given)	295 to 296 °C
O=[N+]([O-])c1cn2c(n1)O[C@@H](COc1ccc(N3CCC(Nc4ccc(OCc5ccc(OC(F)(F)F)cc5)cc4)CC3)cc1)CC2	227 to 229 °C
COC(=S)c1sc(C)c(Cl)c1OC	82 to 83 °C
CCOC(=O)c1c(N2CCN(C(=O)c3ccco3)CC2)c2cc(F)cnc2n(Cc2cccc(F)c2)c1=O	121 °C
C=CCNc1nc(C2C(=O)Nc3ccc(Br)cc32)c2cn(CCC)nc2n1 (stereo not given)	322 to 326 °C
COc1ccc(C(=O)Nc2cccc3[nH]ccc23)c(OCC2CO2)c1 (stereo not given)	157 °C
CCC(C)NC(=O)c1ncc(C)cc1C(N)=O (stereo not given)	119 to 123 °C
